Key:
recombinant human VISTA = molecular target: T1, recombinant human VISTA (Homo sapiens, UniProt Q9H7M9); assay: Human PBMC IFN-γ release assay in the presence of recombinant human VISTA; type: cell-based; details: 100 nM compound, plate-coated VISTA + anti-CD3, anti-CD28, 72 h, ELISA
T1 construct: Fc (Fc chimera); purchased R&D Systems 7126-B7
Description: Example 2: Rescue of Mouse Splenocyte Proliferation in the Presence of Recombinant VISTA
Vehicle: Milli Q water; RPMI 1640 (GIBCO, Cat #11875); Fetal Bovine Serum [Hyclone, Cat #SH30071.03]; Penicilin (10000 unit/ml)-Streptomycin (10,000 μg/ml) liquid (GIBCO, Cat #15140-122); MEM Sodium Pyruvate solution 100 mM (100×), Liquid (GIBCO, Cat #11360); Nonessential amino acid (GIBCO, Cat #11140); L-Glutamine (GIBCO, Cat #25030); Recombinant human VISTA (rhGi24 VISTA/B7-H5 Fc chimera (R&D systems, cat no: 7126-B7); Anti-h/m Gi24/VISTA/B7-H5 purified mouse monoclonal IgG2B (R&D systems, cat no: MAB7126); Mouse IgG2B isotype control (R&D Systems cat no: MAB 004); Anti human-CD3 antibody (eBiosciences-16-0039); Anti human-CD28 antibody (eBiosciences-16-0289); Histopaque (density-1.077 gm/ml) (SIGMA 1077); Trypan Blue solution (SIGMA-T8154); Hemacytometer (Bright line-SIGMA Z359629); FACS Buffer containing Phosphate Buffered Saline (PBS) pH 7.2; (HiMedia TS1006) with 0.1% Bovine Serum Albumin (BSA) (SIGMA A7050) and sodium azide (SIGMA 08591); 96-well format ELISA plates (Corning 3599); 96-well format ELISA plates (Corning 3361); BD FACS caliber (E6016); Centrifuge (Eppendorf 5810 R); Human IFN-γ Duo set ELISA kit (R&D Systems; cat no: DY-285).
96-well cell culture plates were pre-coated with recombinant human VISTA (2.5 μg/ml) and anti-human CD3 (2.5 μg/ml), and stored at 4° C. overnight. Anti-human VISTA and isotype control antibodies were either coated along with the VISTA or incubated for 30 min next day before addition of cells. On the next day, plates were washed with 1×PBS and then incubated with test compounds for 30 min. Isolated PBMC (0.1×10^6 cells/well) and anti-human CD28 antibodies (lug/ml) were added to the wells. The culture was further incubated for 72 h at 37° C. with 5% CO2. After 72 h of incubation the cell culture supernatants were collected after brief centrifugation at 200 g×5 min at 4° C. and processed for human IFN-γ measurement by ELISA following manufacturer's protocol (R&D Systems; DY-285).
In brief, 96-well ELISA plates were coated with 100 μl/well of capture antibody in coating buffer and incubated overnight at 4° C. Plates were washed five times with wash buffer and further blocked with 200 μl of 1× assay diluents for 1 hr at RT. Following wash step, 100 μl of cell culture supernatants were added to wells and further incubated for 2 hr at RT. Appropriate standards were also included. After wash step, plate was incubated for one hour with 100 μl/well of detection antibody. The wash step was repeated and the plate was incubated for 30 min with 100 μl/well of Avidin-HRP. The plate was washed four times with wash buffer and subsequently incubated for 15 min with 100 μl/well of substrate solution. 50 μl of stop solution was added to each well and the plate was read at 450 nm using Gen5 ver 2.05. Delta OD values were used for calculating the concentrations. The absorbance values were plotted against the standards and the concentration of IFN-γ was determined using GraphPad Prism software. Each experimental condition was carried out in triplicates.
The percent rescue of IFN-γ release of the selected compounds of present invention are set forth below wherein “A” refers to compounds having more than 70% rescue of IFN-γ release, “B” refers to compounds having rescue of IFN-γ release ranges from 50% to 69.9% and “C” refers to compounds having less than 50% rescue of IFN-γ release.

Recombinant mouse PD-L1 = molecular target: T2, Recombinant mouse PD-L1 (Mus musculus, UniProt Q9EP73); assay: Rescue of mouse splenocyte proliferation in the presence of recombinant PD-L1 (CFSE proliferation assay); type: cell-based; details: 100 nM compound; anti-CD3/CD28 stimulated mouse splenocytes + PD-L1; 72 h; stimulated splenocytes = 100%; read-out: PDL1 (rescue of proliferation @ 100 nM)
T2 construct: Fc (Fc chimera); purchased R&D Systems 1019-B7-100
T2 sequence (Q9EP73 19-238 limits assumed): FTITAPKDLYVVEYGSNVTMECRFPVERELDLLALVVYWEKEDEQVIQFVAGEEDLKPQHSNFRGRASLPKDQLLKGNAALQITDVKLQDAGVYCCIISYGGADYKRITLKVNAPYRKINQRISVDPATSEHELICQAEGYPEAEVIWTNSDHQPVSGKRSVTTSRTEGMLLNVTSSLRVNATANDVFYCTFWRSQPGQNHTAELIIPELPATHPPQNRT
Description: Example 1: Rescue of Mouse Splenocyte Proliferation in the Presence of Recombinant PD-L1/PD-L2
Recombinant mouse PD-L1 (rm-PDL-1, cat no: 1019-B7-100; R&D Systems) were used as the source of PD-L1.
Mouse splenocytes harvested from 6-8 weeks old C57 BL6 mice; RPMI 1640 (GIBCO, Cat #11875); DMEM with high glucose (GIBCO, Cat #D6429); Fetal Bovine Serum [Hyclone, Cat #SH30071.03]; Penicillin (10000unit/mL)-Streptomycin (10,000 μg/mL) Liquid (GIBCO, Cat #15140-122); MEM Sodium Pyruvate solution 100 mM (100×), Liquid (GIBCO, Cat #11360); Nonessential amino acid (GIBCO, Cat #11140); L-Glutamine (GIBCO, Cat #25030); Anti-CD3 antibody (eBiosciences-16-0032); Anti-CD28 antibody (eBiosciences-16-0281); ACK lysis buffer (1mL) (GIBCO, Cat #-A10492); Histopaque (density-1.083 gm/mL) (SIGMA 10831); Trypan blue solution (SIGMA-T8154); 2 mL Norm Ject Luer Lock syringe-(Sigma 2014-12); 40 μm nylon cell strainer (BD FALCON 35230); Hemacytometer (Bright line-SIGMA Z359629); FACS Buffer (PBS/0.1% BSA): Phosphate Buffered Saline (PBS) pH 7.2 (HiMedia TS1006) with 0.1% Bovine Serum Albumin (BSA) (SIGMA A7050) and sodium azide (SIGMA 08591); 5 mM stock solution of CFSE: CFSE stock solution was prepared by diluting lyophilized CFSE with 180 μL of Dimethyl sulfoxide (DMSO C2H6SO, SIGMA-D-5879) and aliquoted in to tubes for further use. Working concentrations were titrated from 10 μM to 1 μM. (eBioscience-650850-85); 0.05% Trypsin and 0.02% EDTA (SIGMA 59417C); 96-well format ELISA plates (Corning CLS3390); BD FACS caliber (E6016);
Recombinant mouse B7-H1/PDL1 Fc Chimera, (rm-PD-L1 cat no: 1019-B7-100).
Splenocytes harvested in a 50 mL falcon tube by mashing mouse spleen in a 40 μm cell strainer were further treated with 1 mL ACK lysis buffer for 5 min at room temperature.
After washing with 9 mL of RPMI complete media, cells were re-suspended in 3 mL of 1×PBS in a 15 mL tube. 3 mL of Histopaque was added carefully to the bottom of the tube without disturbing overlaying splenocyte suspension. After centrifuging at 800×g for 20 min at room temperature, the opaque layer of splenocytes was collected carefully without disturbing/mixing the layers. Splenocytes were washed twice with cold 1×PBS followed by total cell counting using Trypan Blue exclusion method and used further for cell based assays.
Splenocytes were cultured in RPMI complete media (RPMI +10% fetal bovine serum+1 mM sodium pyruvate+10,000units/mL penicillin and 10,000 μg/mL streptomycin) and maintained in a CO2 incubator with 5% CO2 at 37° C.
CFSE is a dye that passively diffuses into cells and binds to intracellular proteins. 1×10^6 cells/mL of harvested splenocytes were treated with 5 μM of CFSE in pre-warmed 1×PBS/0.1% BSA solution for 10 min at 37° C. Excess CFSE was quenched using 5 volumes of ice-cold culture media to the cells and incubated on ice for 5 min. CFSE labelled splenocytes were further given three washes with ice cold complete RPMI media. CFSE labelled 1×10^5 splenocytes added to wells containing either MDA-MB231 cells (1×10^5 cells cultured in high glucose DMEM medium) or recombinant […] PDL-1 (100 ng/mL) and test compounds. Splenocytes were stimulated with anti-mouse CD3 and anti-mouse CD28 antibody (lug/mL each), and the culture was further incubated for 72 h at 37° C. with 5% CO2. Cells were harvested and washed thrice with ice cold FACS buffer and % proliferation was analysed by flow cytometry with 488 nm excitation and 521 nm emission filters.
Percent splenocyte proliferation was analysed using cell quest FACS program and percent rescue of splenocyte proliferation by compound was estimated after deduction of % background proliferation value and normalising to % stimulated splenocyte proliferation (positive control) as 100%.
Stimulated splenocytes: Splenocytes+anti-CD3/CD28 stimulation
Background proliferation: Splenocytes+anti-CD3/CD28+PD-L1
Compound proliferation: Splenocytes+anti-CD3/CD28+PD-L1+Compound […]

T1 sequence (Q9H7M9 with tags, fused parts or gaps limits assumed): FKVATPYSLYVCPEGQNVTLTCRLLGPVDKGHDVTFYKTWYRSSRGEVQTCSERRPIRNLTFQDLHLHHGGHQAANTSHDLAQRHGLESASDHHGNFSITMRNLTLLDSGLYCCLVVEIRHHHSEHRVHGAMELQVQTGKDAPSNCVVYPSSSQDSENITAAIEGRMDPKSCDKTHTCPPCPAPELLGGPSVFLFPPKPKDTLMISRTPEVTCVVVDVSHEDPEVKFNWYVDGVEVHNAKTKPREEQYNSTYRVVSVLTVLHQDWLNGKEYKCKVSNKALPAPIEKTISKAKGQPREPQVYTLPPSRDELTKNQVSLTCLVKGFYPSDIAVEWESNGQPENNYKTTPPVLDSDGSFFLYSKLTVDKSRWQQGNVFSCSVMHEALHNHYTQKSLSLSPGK

activation at 0.1 µM (Recombinant mouse PD-L1) [%]	Structure (SMILES)	VISTA (rescue of IFN γ release @ 100 nM) (recombinant human VISTA)
	NCCCC[C@H](N)c1noc([C@H](CCC(N)=O)NC(=O)N[C@@H](CO)C(=O)O)n1 [Compound 12]	B (rescue of IFN-γ release ranges from 50% to 69.9%)
64	CC(O)[C@H](NC(=O)N[C@@H](CC(N)=O)c1nc([C@H](N)CO)no1)C(=O)O (some centres unmarked) [Compound 21]	A (more than 70% rescue of IFN-γ release)
	CCCCCCNC(=O)CC[C@H](NC(=O)N[C@H](C(=O)O)C(C)O)c1nc([C@@H](N)CO)no1 (some centres unmarked) [Compound 18]	C (less than 50% rescue of IFN-γ release)
	N=C(N)NCCC[C@H](N)c1noc([C@H](CC(=O)O)NC(=O)N[C@@H](CO)C(=O)O)n1 [Compound 16]	B (rescue of IFN-γ release ranges from 50% to 69.9%)
	CC(O)[C@H](NC(=O)N[C@@H](CC(N)=O)c1nc([C@@H](N)Cc2ccc(O)cc2)no1)C(=O)O (some centres unmarked) [Compound 5]	A (more than 70% rescue of IFN-γ release)
70	CC(O)[C@H](NC(=O)N[C@@H](CC(=O)O)c1nc([C@@H](N)CCCNC(=N)N)no1)C(=O)O (some centres unmarked) [Compound 15]	C (less than 50% rescue of IFN-γ release)
59	N[C@@H](Cc1cnc[nH]1)c1noc([C@H](CC(=O)O)NC(=O)N[C@@H](CO)C(=O)O)n1 [Compound 14]	B (rescue of IFN-γ release ranges from 50% to 69.9%)
	CCC(C)[C@H](NC(=O)N[C@H](C(=O)O)[C@@H](C)O)c1nc([C@@H](N)CO)no1 (some centres unmarked) [Compound 27]	A (more than 70% rescue of IFN-γ release)
83	CC(O)[C@@H](NC(=O)N[C@H](CC(N)=O)c1nc([C@H](N)CO)no1)C(=O)O (some centres unmarked) [Compound 22]	A (more than 70% rescue of IFN-γ release)
55	CC(O)[C@H](NC(=O)N[C@H](CC(N)=O)c1nc([C@H](N)CO)no1)C(=O)O (some centres unmarked) [Compound 24]	A (more than 70% rescue of IFN-γ release)
96	CC(O)[C@H](NC(=O)N[C@@H](CC(N)=O)c1nc([C@@H](N)CCCCN)no1)C(=O)O (some centres unmarked) [Compound 7]	C (less than 50% rescue of IFN-γ release)
63	CN[C@@H](CO)c1noc([C@H](CC(N)=O)NC(=O)N[C@H](C(=O)O)C(C)O)n1 (some centres unmarked) [Compound 6]	C (less than 50% rescue of IFN-γ release)
97	CC(O)[C@H](NC(=O)N[C@@H](CC(N)=O)c1nc([C@@H](N)CO)no1)C(=O)O (some centres unmarked) [Compound 1]	A (more than 70% rescue of IFN-γ release)
	CCCCCCNC(=O)C[C@H](NC(=O)N[C@H](C(=O)O)C(C)O)c1nc([C@@H](N)CO)no1 (some centres unmarked) [Compound 10]	C (less than 50% rescue of IFN-γ release)
	N[C@@H](CO)c1noc([C@H](CO)NC(=O)N[C@@H](CO)C(=O)O)n1 [Compound 13]	B (rescue of IFN-γ release ranges from 50% to 69.9%)
	NCCCC[C@H](NC(=O)N[C@@H](CC(N)=O)c1nc([C@@H](N)CO)no1)C(=O)O [Compound 4]	B (rescue of IFN-γ release ranges from 50% to 69.9%)
	CC(=O)NCCCC[C@@H](NC(=O)N[C@H](C(=O)O)C(C)O)c1nc([C@@H](N)CO)no1 (some centres unmarked) [Compound 17]	C (less than 50% rescue of IFN-γ release)
	CC(O)[C@H](NC(=O)N[C@@H](CC(N)=O)c1nc(C2(N)CCCC2)no1)C(=O)O (some centres unmarked) [Compound 25]	C (less than 50% rescue of IFN-γ release)
	CCC(C)[C@H](NC(=O)N[C@@H](CCC(=O)O)C(=O)O)c1nc([C@@H](N)CCC(N)=O)no1 (some centres unmarked) [Compound 11]	C (less than 50% rescue of IFN-γ release)
	CC(O)[C@H](NC(=O)N[C@H](c1nc([C@@H](N)CO)no1)C(C)C)C(=O)O (some centres unmarked) [Compound 9]	C (less than 50% rescue of IFN-γ release)
	CC(O)[C@@H](NC(=O)N[C@@H](CC(N)=O)c1nc([C@@H](N)CO)no1)C(=O)O (some centres unmarked) [Compound 20]	A (more than 70% rescue of IFN-γ release)
